Assay results as given in EP0908457B1, “3-(1,2-benzisothiazol- and isoxazol-5-Y1)-2,4(1H,3H)-pyrimidinedione or thione and 3-(1,2-benzisothiazol- and isoxazol-5-y1)-4(3H)-pyrimidinone or thione herbicidal agents” (BASF AKTIENGESELLSCHAFT, priority 1997, dated 1999).

How the values were obtained:
[1] = system: Echinochloa oryzoides (Ard.) Fritsch.; assay: Preemergence weed control under flooded paddy conditions, ECHORC (Watergrass (Calif.)); assay type: in vivo; conditions: flooded paddy; for herbicidal effect rating, ECHORC: meaning of each grade not given here
[2] = system: Cyperus iria; assay: Preemergence weed control under flooded paddy conditions, CYPIR (Rice Flatsedge); assay type: in vivo; conditions: flooded paddy; for herbicidal effect rating, CYPIR: meaning of each grade not given here
[3] = system: Cyperus serotinus, Rottb.; assay: Preemergence weed control under flooded paddy conditions, CYPSE (Flatsedge); assay type: in vivo; for herbicidal effect rating, CYPSE: meaning of each grade not given here
[4] = system: Monochoria vaginalis, Presl.; assay: Preemergence weed control under flooded paddy conditions, MOOVA (Monochoria); assay type: in vivo; conditions: flooded paddy; for herbicidal effect rating, MOOVA: meaning of each grade not given here
[5] = system: Sagittaria pygmaea, L.; assay: Preemergence weed control under flooded paddy conditions, SAGPY (Arrowhead (Pygmaea)); assay type: in vivo; conditions: flooded paddy; for herbicidal effect rating, SAGPY: meaning of each grade not given here
[6] = system: Oryza sativa, (L.) Tebonnet; assay: Rice tolerance to post-transplant applications under flooded paddy conditions (Example 187), ORYSAT (Rice, Tebonnet); for herbicidal effect rating ORYSAT: meaning of each grade not given here
[7] = Rate 0.0320 kg/ha, preemergence, rated 3-4 weeks after treatment
[8] = Rate 0.0620 kg/ha, preemergence, rated 3-4 weeks after treatment
[9] = Rate 0.1250 kg/ha, preemergence, rated 3-4 weeks after treatment
[10] = Rate 0.2500 kg/ha, preemergence, rated 3-4 weeks after treatment
[11] = Rate 0.0320 kg/ha, rated 3-4 weeks after treatment
[12] = Rate 0.0620 kg/ha, rated 3-4 weeks after treatment
[13] = Rate 0.1250 kg/ha, rated 3-4 weeks after treatment
[14] = Rate 0.2500 kg/ha, rated 3-4 weeks after treatment
[15] = 0.0313 kg/ha, preemergence, rated three to four weeks after treatment
[16] = 0.0625 kg/ha, preemergence, rated three to four weeks after treatment
[17] = 0.1250 kg/ha, preemergence, rated three to four weeks after treatment
[18] = 0.2500 kg/ha, preemergence, rated three to four weeks after treatment
[19] = 0.1250 kg/ha, rated three to four weeks after treatment
[20] = 0.2500 kg/ha, rated three to four weeks after treatment
[21] = 0.0320 kg/ha, preemergence, rated three to four weeks after treatment
[22] = 0.0620 kg/ha, preemergence, rated three to four weeks after treatment
[23] = 0.0320 kg/ha, rated three to four weeks after treatment
[24] = 0.0620 kg/ha, rated three to four weeks after treatment
[25] = Rate 0.0320 kg/ha, preemergence weeds, rated three to four weeks after treatment
[26] = Rate 0.0620 kg/ha, preemergence weeds, rated three to four weeks after treatment
[27] = Rate 0.1250 kg/ha, preemergence weeds, rated three to four weeks after treatment
[28] = Rate 0.2500 kg/ha, preemergence weeds, rated three to four weeks after treatment

## CON(C)C(=O)/C=C/c1nsc2ccc(-n3c(=O)cc(C(F)(F)F)n(C)c3=O)cc12 [Example 565, 1,2-Benzisothiazole-3-acrylamide, 5-[3,6-dihydro-3-methyl-2,6-dioxo-4-(trifluoromethyl)-1(2H)-pyrimidinyl]-N-methoxy-N-methyl-, (E)-]
[1]; [7]
  herbicidal effect rating, ECHORC: 0.0
[1]; [8]
  herbicidal effect rating, ECHORC: 0.0
[1]; [9]
  herbicidal effect rating, ECHORC: 0.0
[1]; [10]
  herbicidal effect rating, ECHORC: 0.0
[2]; [7]
  herbicidal effect rating, CYPIR: 0.0
[2]; [8]
  herbicidal effect rating, CYPIR: 3.0
[2]; [9]
  herbicidal effect rating, CYPIR: 6.0
[2]; [10]
  herbicidal effect rating, CYPIR: 6.0
[3]; [7]
  herbicidal effect rating, CYPSE: 0.0
[3]; [8]
  herbicidal effect rating, CYPSE: 0.0
[3]; [9]
  herbicidal effect rating, CYPSE: 0.0
[3]; [10]
  herbicidal effect rating, CYPSE: 0.0
[4]; [7]
  herbicidal effect rating, MOOVA: 9.0
[4]; [8]
  herbicidal effect rating, MOOVA: 9.0
[4]; [9]
  herbicidal effect rating, MOOVA: 9.0
[4]; [10]
  herbicidal effect rating, MOOVA: 9.0
[5]; [7]
  herbicidal effect rating, SAGPY: 0.0
[5]; [8]
  herbicidal effect rating, SAGPY: 0.0
[5]; [9]
  herbicidal effect rating, SAGPY: 0.0
[5]; [10]
  herbicidal effect rating, SAGPY: 0.0
[6]; [11]
  herbicidal effect rating ORYSAT: 0.0
[6]; [12]
  herbicidal effect rating ORYSAT: 0.0
[6]; [13]
  herbicidal effect rating ORYSAT: 2.0
[6]; [14]
  herbicidal effect rating ORYSAT: 3.0

## C=CCOCC(CC)(COCC=C)COC(=O)COc1ccc(C)cc1-c1nsc2ccc(-n3c(=O)cc(C(F)(F)F)n(C)c3=O)cc12 [Example 521, Acetic acid, {{2-{5-[3,6-dihydro-3-methyl-2,6-dioxo-4-(trifluoromethyl)-1(2H)-pyrimidinyl]-1,2-benzisothiazol-3-yl}-p-tolyl}oxy}-, 2,2-bis-[(allyloxy)methyl]butyl ester]
[1]; [7]
  herbicidal effect rating, ECHORC: 2.0
[1]; [8]
  herbicidal effect rating, ECHORC: 2.0
[1]; [9]
  herbicidal effect rating, ECHORC: 4.0
[1]; [10]
  herbicidal effect rating, ECHORC: 4.0
[2]; [7]
  herbicidal effect rating, CYPIR: 0.0
[2]; [8]
  herbicidal effect rating, CYPIR: 0.0
[2]; [9]
  herbicidal effect rating, CYPIR: 0.0
[2]; [10]
  herbicidal effect rating, CYPIR: 2.0
[3]; [7]
  herbicidal effect rating, CYPSE: 0.0
[3]; [8]
  herbicidal effect rating, CYPSE: 0.0
[3]; [9]
  herbicidal effect rating, CYPSE: 0.0
[3]; [10]
  herbicidal effect rating, CYPSE: 0.0
[4]; [7]
  herbicidal effect rating, MOOVA: 6.0
[4]; [8]
  herbicidal effect rating, MOOVA: 9.0
[4]; [9]
  herbicidal effect rating, MOOVA: 9.0
[4]; [10]
  herbicidal effect rating, MOOVA: 9.0
[5]; [7]
  herbicidal effect rating, SAGPY: 0.0
[5]; [8]
  herbicidal effect rating, SAGPY: 0.0
[5]; [9]
  herbicidal effect rating, SAGPY: 0.0
[5]; [10]
  herbicidal effect rating, SAGPY: 0.0
[6]; [11]
  herbicidal effect rating ORYSAT: 0.0
[6]; [12]
  herbicidal effect rating ORYSAT: 0.0
[6]; [13]
  herbicidal effect rating ORYSAT: 0.0
[6]; [14]
  herbicidal effect rating ORYSAT: 0.0

## COc1noc2ccc(-n3c(=O)cc(C(F)(F)F)n(C)c3=O)cc12 [Example 42, 3-(3-Methoxy-1,2-benzisoxazol-5-yl)-1-methyl-6-(trifluoromethyl)-2,4(1H,3H)-pyrimidinedione]
[1]; [15]
  herbicidal effect rating, ECHORC: 0.0
[1]; [16]
  herbicidal effect rating, ECHORC: 0.0
[1]; [17]
  herbicidal effect rating, ECHORC: 0.0
[1]; [18]
  herbicidal effect rating, ECHORC: 0.0
[2]; [15]
  herbicidal effect rating, CYPIR: 0.0
[2]; [16]
  herbicidal effect rating, CYPIR: 0.0
[2]; [17]
  herbicidal effect rating, CYPIR: 0.0
[2]; [18]
  herbicidal effect rating, CYPIR: 0.0
[3]; [15]
  herbicidal effect rating, CYPSE: 0.0
[3]; [16]
  herbicidal effect rating, CYPSE: 0.0
[3]; [17]
  herbicidal effect rating, CYPSE: 0.0
[3]; [18]
  herbicidal effect rating, CYPSE: 0.0
[4]; [15]
  herbicidal effect rating, MOOVA: 0.0
[4]; [16]
  herbicidal effect rating, MOOVA: 0.0
[4]; [17]
  herbicidal effect rating, MOOVA: 0.0
[4]; [18]
  herbicidal effect rating, MOOVA: 0.0
[5]; [15]
  herbicidal effect rating, SAGPY: 0.0
[5]; [16]
  herbicidal effect rating, SAGPY: 0.0
[5]; [17]
  herbicidal effect rating, SAGPY: 0.0
[5]; [18]
  herbicidal effect rating, SAGPY: 0.0
[6]; 0.0313 kg/ha, rated three to four weeks after treatment
  herbicidal effect rating, ORYSAT (rice tolerance): 0.0
[6]; 0.0625 kg/ha, rated three to four weeks after treatment
  herbicidal effect rating, ORYSAT (rice tolerance): 0.0
[6]; [19]
  herbicidal effect rating, ORYSAT (rice tolerance): 0.0
[6]; [20]
  herbicidal effect rating, ORYSAT (rice tolerance): 0.0

## CC(C)OC(=O)C(C)(C)c1nsc2ccc(-n3c(=O)cc(C(F)(F)F)n(C)c3=O)cc12 [Example 489, 1,2-Benzisothiazole-3-acetic acid, 5-[3,6-dihydro-3-methyl-2,6-dioxo-4-(trifluoromethyl)-1(2H)-pyrimidinyl]-alpha,alpha-dimethyl-, isopropyl ester]
[1]; [21]
  ECHORC herbicidal rating: 7.0
[1]; [22]
  ECHORC herbicidal rating: 7.0
[1]; [17]
  ECHORC herbicidal rating: 9.0
[1]; [18]
  ECHORC herbicidal rating: 9.0
[2]; [21]
  CYPIR herbicidal rating: 6.0
[2]; [22]
  CYPIR herbicidal rating: 9.0
[2]; [17]
  CYPIR herbicidal rating: 9.0
[2]; [18]
  CYPIR herbicidal rating: 9.0
[3]; [21]
  CYPSE herbicidal rating: 6.0
[3]; [22]
  CYPSE herbicidal rating: 7.0
[3]; [17]
  CYPSE herbicidal rating: 9.0
[3]; [18]
  CYPSE herbicidal rating: 9.0
[4]; [21]
  MOOVA herbicidal rating: 9.0
[4]; [22]
  MOOVA herbicidal rating: 9.0
[4]; [17]
  MOOVA herbicidal rating: 9.0
[4]; [18]
  MOOVA herbicidal rating: 9.0
[5]; [21]
  SAGPY herbicidal rating: 6.0
[5]; [22]
  SAGPY herbicidal rating: 9.0
[5]; [17]
  SAGPY herbicidal rating: 9.0
[5]; [18]
  SAGPY herbicidal rating: 9.0
[6]; [23]
  ORYSAT herbicidal rating (rice tolerance): 5.0
[6]; [24]
  ORYSAT herbicidal rating (rice tolerance): 6.0
[6]; [19]
  ORYSAT herbicidal rating (rice tolerance): 6.0
[6]; [20]
  ORYSAT herbicidal rating (rice tolerance): 6.0

## Cn1c(C(F)(F)F)cc(=O)n(-c2ccc3snc(C(C)(C)C(=O)OCc4ccco4)c3c2)c1=O [Example 487, 1,2-Benzisothiazole-3-acetic acid, 5-[3,6-dihydro-3-methyl-2,6-dioxo-4-(trifluoromethyl)-1(2H)-pyrimidinyl]-alpha,alpha-dimethyl-, furfuryl ester]
[1]; [21]
  ECHORC herbicidal rating: 6.0
[1]; [22]
  ECHORC herbicidal rating: 7.0
[1]; [17]
  ECHORC herbicidal rating: 7.0
[1]; [18]
  ECHORC herbicidal rating: 9.0
[2]; [21]
  CYPIR herbicidal rating: 4.0
[2]; [22]
  CYPIR herbicidal rating: 5.0
[2]; [17]
  CYPIR herbicidal rating: 6.0
[2]; [18]
  CYPIR herbicidal rating: 9.0
[3]; [18]
  CYPSE herbicidal rating: 3.0
[4]; [21]
  MOOVA herbicidal rating: 7.0
[4]; [22]
  MOOVA herbicidal rating: 9.0
[4]; [17]
  MOOVA herbicidal rating: 9.0
[4]; [18]
  MOOVA herbicidal rating: 9.0
[5]; [21]
  SAGPY herbicidal rating: 4.0
[5]; [22]
  SAGPY herbicidal rating: 5.0
[5]; [17]
  SAGPY herbicidal rating: 6.0
[5]; [18]
  SAGPY herbicidal rating: 7.0
[6]; [23]
  ORYSAT herbicidal rating (rice tolerance): 2.0
[6]; [24]
  ORYSAT herbicidal rating (rice tolerance): 3.0
[6]; [19]
  ORYSAT herbicidal rating (rice tolerance): 6.0
[6]; [20]
  ORYSAT herbicidal rating (rice tolerance): 7.0

## C[C@H](Br)[C@H](Br)c1nsc2ccc(-n3c(=O)cc(C(F)(F)F)n(C)c3=O)cc12 [Example 302, 2,4(1H,3H)-Pyrimidinedione, 3-[3-(1,2-dibromopropyl)-1,2-benzisothiazol-5-yl]-1-methyl-6-(trifluoromethyl)-, (1R,2S)-]
[1]; [25]
  herbicidal effect rating, ECHORC: 4.0
[1]; [26]
  herbicidal effect rating, ECHORC: 5.0
[1]; [27]
  herbicidal effect rating, ECHORC: 8.0
[1]; [28]
  herbicidal effect rating, ECHORC: 8.5
[2]; [25]
  herbicidal effect rating, CYPIR: 8.0
[2]; [26]
  herbicidal effect rating, CYPIR: 8.0
[2]; [27]
  herbicidal effect rating, CYPIR: 8.5
[2]; [28]
  herbicidal effect rating, CYPIR: 8.5
[3]; [25]
  herbicidal effect rating, CYPSE: 4.5
[3]; [26]
  herbicidal effect rating, CYPSE: 4.5
[3]; [27]
  herbicidal effect rating, CYPSE: 4.5
[3]; [28]
  herbicidal effect rating, CYPSE: 6.0
[4]; [25]
  herbicidal effect rating, MOOVA: 7.0
[4]; [26]
  herbicidal effect rating, MOOVA: 7.0
[4]; [27]
  herbicidal effect rating, MOOVA: 9.0
[4]; [28]
  herbicidal effect rating, MOOVA: 9.0
[5]; [25]
  herbicidal effect rating, SAGPY: 0.0
[5]; [26]
  herbicidal effect rating, SAGPY: 0.0
[5]; [27]
  herbicidal effect rating, SAGPY: 9.0
[5]; [28]
  herbicidal effect rating, SAGPY: 9.0
[6]; Rate 0.0320 kg/ha, rated three to four weeks after treatment
  herbicidal effect rating ORYSAT: 1.0
[6]; Rate 0.0620 kg/ha, rated three to four weeks after treatment
  herbicidal effect rating ORYSAT: 4.5
[6]; Rate 0.1250 kg/ha, rated three to four weeks after treatment
  herbicidal effect rating ORYSAT: 7.0
[6]; Rate 0.2500 kg/ha, rated three to four weeks after treatment
  herbicidal effect rating ORYSAT: 8.0
